The source of these data is patent publication US20100204143A1, “GAMMA 1 MSH ALONE OR IN COMBINATION WITH PENTAGASTRIN AS A THERAPEUTIC AGENT” (priority 2007, published 2010).

No end group written: not given here.

The test system of one assay is IL-4 spleen cells. Briefly: Th1/Th2 cytokine profiling assay: IL-4. The class given is cell-based, Balb/c mice. The settings on record: 10 micrograms per ml; Ovalbumin restimulation; 72 hours.
Assay [1] has as its system hepatitis B virus (HBV) ayw strain. Briefly: HBV experimental assay system (HepG2-2.2.15, TaqMan PCR of HBV DNA). The assay is classed as cell-based. The settings on record: 10 micrograms per ml; six days; as compared to the virus control infection. (Quantitative PCR measures a nucleic acid by following its amplification.)
The test system of assay [2] is cyclic AMP generation in human peripheral blood mononuclear cells (PBMC). Description: cAMP induction assay. The assay is classed as cell-based. Particulars: single peptides, 10 min at 37° C. As to the method:
The cAMP kit was used as an immunoassay for the quantitative determination of cyclic AMP generation in human peripheral blood mononuclear cells (PBMC). PBMC were placed in 96-well microtitier plates (50 microliters of cells at 4×10^6/ml) and 50 microliters of medium alone (background control), forskolin (cAMP positive control; 50 micrograms per ml), or test peptides were added. Plates were mixed and incubated for 10 min at 37° C. and the cells were lysed by the addition of 50 microliters of 3% perchloric acid. NaOH was added to neutralize the samples. Plates were centrifuged for 15 min at 2500 rpm and the supernatants removed. The supernatants (diluted 2-fold in assay buffer) were then assayed for the levels of cAMP by ELISA.

For a further assay, the system named is IFNγ spleen cells. Briefly: Th1/Th2 cytokine profiling assay: IFNγ. The settings on record: 10 micrograms per ml; Ovalbumin restimulation; 72 hours. The assay is classed as cell-based, Balb/c mice.
The subject of assay [3] is Primary Human endothelial cells (HUVEC). Briefly: Endothelial cell migration assay. The assay is classed as cell-based. The settings on record: 10 micrograms per ml, 22 hours.
In the next assay the test system is IL-5 spleen cells. Briefly: Th1/Th2 cytokine profiling assay: IL-5. The assay is classed as cell-based, Balb/c mice. The settings on record: 10 micrograms per ml; Ovalbumin restimulation; 72 hours.
A further assay has as its system IL-2 spleen cells. Briefly: Th1/Th2 cytokine profiling assay: IL-2. The assay is classed as cell-based, Balb/c mice. Particulars: 10 micrograms per ml; Ovalbumin restimulation; 72 hours.
In a further assay the test system is TNF-a spleen cells. Briefly: Th1/Th2 cytokine profiling assay: TNF-a. Particulars: 10 micrograms per ml; Ovalbumin restimulation; 72 hours. The assay is classed as cell-based, Balb/c mice.

Source text for IFNγ spleen cells: (§1) The Balb/c mice (originated in 1923, it is a popular strain and is used in many different research disciplines. Also classified as an inbred from the production of 20 or more successive brother-sister matings, the Balb/c mouse is albino and small in size) were immunized on Days 1, 15, and 29 with Ovalbumin (Ovalbumin is the main protein found in egg white, commonly used to stimulate an immunological reaction in test animals) in PBS (5 micrograms/injection). On day 50, spleens of the mice were harvested (3 weeks after last boost with Ovalbumin). […] Thereafter, additional Ovalbumin was added to the cells at 10 micrograms/ml for in vitro restimulation of the cells. 72 hours later, cell supernatants were harvested and assayed using the Becton Dickinson Mouse Th1/Th2 Cytokine CBA Kit. This kit can be used to measure Interleukin-2 (IL-2), Interleukin-4 (IL-4), Interleukin-5 (IL-5), Interferon-γ (IFN-γ), and Tumor Necrosis Factor-α (TNF-α) protein levels in a single sample.
Source text for IL-2 spleen cells: as §1
Source text for IL-4 spleen cells: as §1
Source text for IL-5 spleen cells: The Balb/c mice (originated in 1923, it is a popular strain and is used in many different research disciplines. Also classified as an inbred from the production of 20 or more successive brother-sister matings, the Balb/c mouse is albino and small in size) were immunized on Days 1, 15, and 29 with Ovalbumin (Ovalbumin is the main protein found in egg white, commonly used to stimulate an immunological reaction in test animals) in PBS (5 micrograms/injection). On day 50, spleens of the mice were harvested (3 weeks after last boost with Ovalbumin). […] Thereafter, additional Ovalbumin was added to the cells at 10 micrograms/ml for in vitro restimulation of the cells. 72 hours later, cell supernatants were harvested and assayed using the Becton Dickinson Mouse Th1/Th2 Cytokine CBA Kit.
Source text for TNF-a spleen cells: as §1

With “Tyr-Val-Met-Gly-His-Phe-Arg-Trp-Asp-Arg-Phe-NH2 (YVMGHFRWDRF-NH2) [peptide 1]”, the “IL-4 spleen cells; TH2 response (% of control)” value with IL-4 spleen cells is on record as 0.0 % of control. For the same substance, the “inhibition of HBV replication” value in assay [1] is listed as 17.4%. The “induction of cAMP formation in human peripheral blood cells” value in assay [2] is 45.4%. Besides, the “IFNγ spleen cells; TH1 response (% of control)” value in the assay with IFNγ spleen cells is 97.3 % of control. Also, in assay [3], the “induction of the migration of human endothelial cells” value is on record as 12%. Also, the “IL-5 spleen cells; TH2 response (% of control)” value with IL-5 spleen cells is recorded as 67.0 % of control. In addition, the “IL-2 spleen cells (% of control)” value in the assay with IL-2 spleen cells was 101.6 % of control. Also, the “TNF-a spleen cells; TH1 response (% of control)” value in the assay on TNF-a spleen cells is listed as 85.7 % of control.
